Columns and labels:
Assay in all cases: relative viability (nuclei count vs DMSO), 5 days (fraction); higher = more cells survive
[1] = compound: CN[C@@H]1C[C@H]2O[C@@](C)([C@@H]1OC)n1c3ccccc3c3c4c(c5c6ccccc6n2c5c31)C(=O)NC4 [Staurosporine] + COc1cccc2cc(-c3nc([C@H]4CC[C@H](C(=O)O)CC4)n4ncnc(N)c34)[nH]c12 [OSI-027] (partner 0.5 µM)
Outline: (§1)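 Relative viability equals treated-well nuclei counts divided by vehicle-well nuclei counts. Counts came from 4× images of lung cancer cell lines grown in 1536-well plates for 5 days after pin-tool dosing on the day after seeding. Dosing used one drug alone or a fixed anchor-drug dose plus five library-drug doses (not always all listed) in √10 steps, and values are medians of duplicate plates.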

[2] = compound: CC1=C(CC(=O)O)c2cc(F)ccc2/C1=C\c1ccc([S+](C)[O-])cc1 [Sulindac] + CCNC(=O)c1noc(-c2cc(C(C)C)c(O)cc2O)c1-c1ccc(CN2CCOCC2)cc1 [Luminespib] (partner 0.01 µM)
Outline: as §1

[3] = compound: CC1=C(CC(=O)O)c2cc(F)ccc2/C1=C\c1ccc([S+](C)[O-])cc1 [Sulindac] + C[C@@H](Oc1cc(-c2cnn(C3CCNCC3)c2)cnc1N)c1c(Cl)ccc(F)c1Cl [Crizotinib] (partner 1 µM)
Outline: as §1

[4] = compound: O=c1[nH]cc(F)c(=O)[nH]1 [5-Fluorouracil] + O=C(CCCCCCC(=O)Nc1ccccc1)NO [Vorinostat] (partner 1 µM)
Outline: as §1

Cell Line	relative viability ([1]; first compound 0.005 µM)	relative viability ([1]; first compound 0.01581 µM)	relative viability ([1]; first compound 0.05 µM)	relative viability ([1]; first compound 0.1581 µM)	relative viability ([1]; first compound 0.5 µM)	relative viability ([2]; first compound 0.08 µM)	relative viability ([2]; first compound 0.253 µM)	relative viability ([2]; first compound 0.8 µM)	relative viability ([2]; first compound 2.53 µM)	relative viability ([2]; first compound 8 µM)	relative viability ([3]; first compound 0.08 µM)	relative viability ([3]; first compound 0.253 µM)	relative viability ([3]; first compound 0.8 µM)	relative viability ([3]; first compound 2.53 µM)	relative viability ([3]; first compound 8 µM)	relative viability ([4]; first compound 0.02 µM)	relative viability ([4]; first compound 0.2 µM)	relative viability ([4]; first compound 0.6325 µM)	relative viability ([4]; first compound 2 µM)
NCI-H322M	0.619	0.309	0.292	0.294	0.235	0.887	0.819	0.644	0.848	0.881	1.02	1.05	0.687	1.03	1.05	0.932	0.917	0.787	0.757
NCI-H358	0.809	0.157	0.0851	0.0615	0.0427	0.202	0.384		0.46	0.359	0.475	0.52	0.596	0.497	0.746	0.837	0.664	0.529	0.192
NCI-H441	0.368	0.188	0.175	0.176	0.137	0.345	0.326	0.352	0.239	0.289	0.709	0.719	0.626	0.651	0.946	0.862	0.581	0.327	
NCI-H460	0.47	0.303	0.329	0.0118	0.006	0.0451	0.0347	0.0378	0.0255	0.0267	1.41	1.07		0.833	1.19	0.903	0.222	0.082	0.0565
NCI-H520	0.294	0.319	0.274	0.268	0.141	0.21	0.204	0.246	0.228	0.199	0.801	0.747	0.445	0.828	0.876	0.673	0.681	0.528	0.394
NCI-H596	0.798	0.285	0.439	0.179	0.135	1.08	0.99	0.915	1	0.993	0.896	1.05	0.913	0.991	1.04	0.668	0.553	0.397	0.384
NCI-H647	0.29	0.123	0.149	0.0899	0.0651	0.187	0.125	0.169	0.122	0.134	1.4	1.21	0.879	1.26	1.35	0.432	0.593	0.48	0.187
NCI-H650	0.34	0.271	0.257	0.277	0.255	0.796	0.87	0.659	0.644	0.935	0.788	0.73	0.793	0.637	0.914	0.414	0.309	0.264	0.251
NCI-H661	0.641	0.413	0.346	0.201	0.166	0.969	0.97	0.852	0.9	0.957	0.973	1.03	1.03	1.17	0.973	0.835	0.818	0.786	0.809
NCI-H727	0.422	0.289	0.301	0.291	0.225	0.223	0.338		0.299	0.443	0.964	0.779	0.782	0.856	1.03	0.953	1.14	1	0.902
NCI-H838	0.207	0.153	0.196	0.162		0.231	0.277	0.243	0.211	0.307	1.12	0.781	0.674	0.903	0.884	0.716	0.637	0.404	0.266
NCI-H1355	0.332	0.15	0.192	0.157	0.143	0.612	0.668		0.601	0.702	1.27	1.15	0.954	1.07	1.11	0.625	0.49	0.264	0.243
NCI-H1437	0.744		0.587	0.183	0.181	1.33	1.1	0.912	1.25	1.25	1.15	0.992	0.58	0.978	1.04	0.441	0.301	0.252	0.253
NCI-H1650	0.357	0.187	0.142	0.168		0.201	0.197		0.192	0.211	1.17	0.878	0.912	0.979	1.02	0.552	0.386	0.329	0.198
NCI-H1651	0.523	0.396	0.304	0.114	0.129	1.08	0.897		0.8	0.948	0.969	0.86		0.93	0.929	0.529	0.531	0.246	0.245
NCI-H1666	0.658	0.542	0.548	0.425	0.262	1.04	1.03	0.955	1	1.1		1.03	0.942	0.949	1.17	0.981	0.649	0.577	0.563
NCI-H1734	0.456	0.245	0.209	0.13	0.0703	0.146	0.186		0.203	0.23	0.658	0.754	0.583	0.703	0.787	0.807	0.835	0.685	0.464

Source: the supplement of paper PMC10307832
